The values that follow come from US8729060B2, “Macrocyclic polyoxazole compounds and use thereof” (Rutgers, the State University of New Jersey, priority 2007, dated 2014).

Series [1] concerns human lymphoblastoma RPMI 8402. Briefly: MTT assay (Test C), human lymphoblastoma RPMI 8402. The series is classed as cell-based. Particulars: 96 h, RPMI 8402, MTT, 4 days, read-out: cytotoxic activity IC50. Here is the method: (§1) Test C. Evaluation of G-Quadruplex Stabilizers Using the MTT Assay.
(§2) Cell lines are selected based upon one or more factors including data on their relative telomerase activity, varied organ sites, available comparative data, and their ability to form solid tumors in athymic nude mice. The advantage of an MTT assay is that the cytotoxic/cytostatic activities can be readily determined. Cells are cultured for 4 days at 37° C. followed by addition of MTT (3-[4,5-dimethylthiozol-2-yl]-2,5-diphenyltetrazolium bromide (Sigma) (0.1 mg/ml). Cells are treated with MTT for 3 hrs and then dissolved in 100 μl 100% DMSO. Absorbance is measured at OD570 using a microplate reader (Model 3550 UV from BIO-RAD). The MTT value is normalized to OD570 of cells treated with Cellfectin alone. Stock solutions of each compound are prepared. MTT assays are performed using spectrometric analysis and 96 well plates. Compound 258, a representative compound of formula I, was evaluated against a variety of cell lines using the MTT assay compound.
(In general: Tetrazolium assays rely on reduction of a dye to a coloured formazan, in cell work by metabolically active cells.)

In series [2] the test system is human nasopharyngeal carcinoma KB3-1. Briefly: MTT assay (Test C), human nasopharyngeal carcinoma KB3-1. The series is classed as cell-based. Particulars: KB 3-1, 96 h, KB3-1, MTT, 4 days, read-out: cytotoxic activity IC50. The procedure: as §1, §2
Series [3] deals with murine leukemia P388. The series is described as follows: MTT assay (Test C), murine leukemia P388. Format: cell-based. To be noted: Mus musculus, 96 h, 4 days, read-out: cytotoxic activity IC50. The procedure: as §1, §2
Series [4] concerns LAN1. To be noted: read-out: cytotoxicity IC50; cited from earlier work.
For series [5], the system named is K62 leukemia cells. Particulars: cited from earlier work.
In series [6] the test system is LAN5. To be noted: read-out: cytotoxicity IC50; cited from earlier work.
The subject of series [7] is WAC2. Particulars: read-out: cytotoxicity IC50; cited from earlier work.
Series [8] addresses telomerase. To be noted: read-out: telomerase inhibitory activity IC50; cited from earlier work.
Series [9] has as its system MiaPaCa. Particulars: read-out: cytotoxicity IC50; cited from earlier work.
Series [10] deals with natural bone marrow CD34-positive cells. Particulars: cited from earlier work.
Series [11] relates to SK-N-AS. To be noted: read-out: cytotoxicity IC50; cited from earlier work.
In series [12] the test system is human breast cancer cell lines HBC-4, BSY-1, HBC-5, MCF-7, and MDA-MB-231. To be noted: range over HBC-4, BSY-1, HBC-5, MCF-7, MDA-MB-231; cited from earlier work.

As to `CC(C)[C@@H]1NC(=O)c2coc(n2)-c2coc(n2)-c2coc(n2)C/C=C/c2coc(n2)-c2coc(n2)-c2coc1n2` [Compound 258, Macrocyclic Hexaoxazole], the melting point was 195 to 197 °C (dec.). Besides, the concentration for half-maximal inhibition (IC50) in series [1] stood at 25 nM. For the same molecule, the 50% inhibitory concentration (IC50) in series [2] was 25 nM. The 50% inhibitory concentration (IC50) in series [3] was found to be 45 nM.

On to `Cc1oc2nc1-c1nc(co1)-c1nc(co1)-c1nc(co1)-c1nc(co1)-c1nc(co1)C1=NC(CS1)c1nc-2c(C)o1` (stereo not shown) [Telomestatin], for which the IC50 in series [4] is 4 µM; in [6] it was 2500 nM; in [7], 3.2 µM; in [8], 5 nM; in [9], 500 nM; in series [11], 800 nM. In addition, in [5], the “effect on plating efficiency” value is listed as “does suppress the plating efficiency”. For the same molecule, in series [10], the “effect on BFU-E and CFU-GM” value is “much lesser effect”.

As for `CC[C@H](C)[C@@H]1NC(=O)c2nc(oc2-c2ccccc2)-c2csc(n2)-c2coc(n2)-c2coc(n2)-c2coc(n2)CNC(=O)[C@@H](C(C)C)NC1=O` [YM-216391], the 50% growth inhibitory concentration (GI50) in [12] is 15 to 33 nM.

In general, IC50 refers to the concentration that gives 50% inhibition. Broadly, the melting point is the temperature, or range, at which the solid turns liquid. A word on the GI50: it is the concentration at which growth is held to half of that of the control.
